# Test: Ibuprofen concentration in 0.1 N HCl by HPLC UV
# Assay type: physicochemical
# Details: 1 g solid dispersion (=200 mg ibuprofen) or raw drug in 900 mL 0.1 N HCl, stirred at 100 rpm for 0.5 h
# Method: (§1) Samples were taken and ibuprofen concentration was measured by HPLC UV.
# as §1
smiles,measurement,value
CC(C)Cc1ccc(C(C)C(=O)O)cc1 (stereo not shown) [ibuprofen],ibuprofen concentration,0.030 µg/mL

# Source: patent US6391338B1, “System for rendering substantially non-dissoluble bio-affecting agents bio-available” (Biovail Technologies Ltd., priority 1995, dated 2002)
